Reference: article doi:10.1101/2025.06.07.658458v1, “Discovery of excited state proton transfer in flavin-based fluorescent protein with large Stokes shift” (biorxiv, 2025)

What was measured:
Format in all cases: binding
[1] = biological target: T1, CagFbFP (Q89E variant: LSSFbFP) (Chloroflexus aggregans, UniProt B8GAY9, C85A/Q89E); assay: melting curve by flavin fluorescence in real-time PCR cycler; details: Tm of the complex, not a shift
T1 construct: gene Cagg_3753; C85A background inferred from printed I52V-A85Q and known biology
T1 sequence (B8GAY9 47-153 C85A/Q89E): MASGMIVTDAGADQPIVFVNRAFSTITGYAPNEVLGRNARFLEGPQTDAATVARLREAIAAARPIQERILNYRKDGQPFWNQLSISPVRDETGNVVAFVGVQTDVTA

[2] = biological target: T1, CagFbFP (Q89E variant: LSSFbFP); assay: chromophore dissociation constant measurement, details in cited reference; crystal structure of complex
[3] = biological target: T1, CagFbFP (Q89E variant: LSSFbFP); assay: melting curve by flavin fluorescence in real-time PCR cycler; details: Tm of the complex, not a shift; remark: listed apart in the source

SMILES	denaturation temperature [1] [°C]	Kd [2] [nM]	thermal stability [3] [°C]
Cc1cc2nc3c(=O)[nH]c(=O)nc-3n(C[C@H](O)[C@H](O)[C@H](O)COP(=O)(O)O)c2cc1C [FMN, flavin mononucleotide]	81	360 ± 50	
Cc1cc2nc3[nH]c(=O)[nH]c(=O)c3nc2cc1C [LC, lumichrome]		900 ± 300	58
